Consider 7 substances from US7482329B2, “Single domain TDF-related compounds and analogs thereof” (Thrasos Therapeutics, priority 2002, dated 2009).

The test system of assay [1] is IL-6 in HK2 human transformed kidney proximal tubule cells. Description: IL-6 level in HK-2 cell medium after TNF-alpha stimulation (ELISA). In kind it is cell-based. The note with it: after TNF-alpha inflammatory stimulation, FIG. 6, FIG. 10. The procedure:
(§1) The immortalized PTEC-derived HK-2 (Human Kidney-2) cells (ATCC number CRL-2190) were grown in serum-free keratinocyte medium (GIBCO number 17005-042) supplemented with epidermal growth factor (EGF: 5 ng/mL) and bovine pituitary extract (40 ug/mL) for 48 hours as described previously (Ryan et al (1994) Kidney International 45:48-57). Cells were transferred to 24-well plates at a density of 3×10^5 cells per well. After 24 hours, cells were incubated with fresh medium containing TNF-alpha (5 ng/mL) for 20 hours. Controls received medium alone. Then cells were washed twice with fresh culture medium and further incubated with culture medium alone (medium control, and TNF control wells) or TDF-1 at three different concentrations (40, 200 or 1000 ng/mL) or TDFRP compounds at three different concentrations (4, 20 or 100 uM) for sixty hours. During incubation, cells were kept in a 5% CO2 humid atmosphere at 37° C. At the end of the incubation, the media were removed and stored frozen until assayed. The concentrations of IL-6 and sICAM-in culture supernatants were measured by specific ELISA.
Dilute the capture antibody to the working concentration in PBS, pH 7.4 without carrier protein. Add 61 uL of stock antibody (360 ug/mL) to 10.939 mL of PBS, gently vertex. Immediately coat a 96 well microplate (Immulon 4 HBX) with 100 uL per well of the diluted capture antibody. Seal the plate and incubate it overnight in cold (4° C.). (PBS: 8.1 mM Na2HPO4, 1.5 mM KH2PO4, 137 mM NaCl, 2.7 mM KCl, pH 7.4, 0.2 um filtered). Next day empty the wells and wash the wells three times, each time using 340 uL of wash buffer per well. (wash buffer: PBS, pH 7.4 containing 0.05% Tween-20).
Prepare blocking buffer, 35 mL per plate. To prepare blocking buffer, add 0.35 grams of BSA and 1.75 grams of sucrose to 35 mL of PBS, pH 7.4, and mix the contents gently. Add 300 uL of blocking buffer to each well and incubate the plate for a minimum of 1 hour at room temperature. Empty the wells and wash wells three times, each time using 340 uL of wash buffer per well.
Prepare a 8 point standard curve using 2-fold serial dilutions in reagent diluent. Dilute stock standard, recombinant IL-6, 70 ng/mL to an initial concentration of 2400 ng/mL in reagent diluent. Then further dilute the standard to a working range, 1200, 600, 300, 150, 75, 37.5, 18.75 and 9.375 ng/mL using reagent diluent. (to prepare reagent diluent, add 0.4 grams of BSA to 40 mL of PBS, pH 7.4 and gently vertex). Also dilute 24 uL of each sample medium (from HK-2 cell cultures) with 376 uL of reagent diluent. Add 100 uL of standard or sample per well, seal the plate and incubate it overnight in cold (4° C.).
Next day, empty the wells and wash wells three times, each time using 340 uL of wash buffer per well. […]
A general note: In an ELISA, binding on a coated surface is turned into a signal by an enzyme label.

A further assay concerns HK-2 cells. Description: Anti-inflammatory activity in HK-2 cell culture (FIG. 11-13). The format is cell-based, human. Conditions: marker not stated. The procedure:
as §1

The target in assay [2] is T1, BMPR-1A (ALK3) receptor extra cellular domain (Homo sapiens, UniProt P36894).
T1 construct: immobilized BMPR-1A receptor extra cellular domain (ECD)
T1 sequence (P36894 24-152 limits assumed, species assumed): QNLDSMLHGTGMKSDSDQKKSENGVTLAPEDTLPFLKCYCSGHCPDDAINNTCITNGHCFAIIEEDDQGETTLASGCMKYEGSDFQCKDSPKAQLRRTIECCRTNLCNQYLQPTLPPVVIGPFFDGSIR
In words: Radio-ligand receptor binding assay, competition with 125I-labeled TDF-1 for ALK-3. Conditions: competitive binding assay, FIG. 2. The text has this:
(§2) General protocol: These assays are based on competition between ^125I-labeled TDF-1 (BMP-7 or OP-1) and candidate TDFRP compounds or unlabeled TDF-1 for binding to respective receptors (ALK-3, ALK-6 or BMPR-2). In brief, the procedure involves immobilization of receptor on 96 well Removawell plates, blocking the wells with 3% BSA in PBS and subsequently washing the wells. Increasing concentrations of unlabeled TDF-1 or TDFRP compounds or control (unlabeled TDF-1) prepared in binding buffer are then added. Incubate plate for 1 hour at room temperature, and then add a fixed amount of ^125I-labeled TDF-1 (250,000 to 350,000 cpm) to the wells and further incubate in cold (4° C.) for 20 hours. Aspirate the contents of the wells and wash the wells four times with a wash buffer, and count the receptor bound ^125I-labeled TDF-1 in an auto gamma counter. B. HK-2 Cell Culture and Determination of Cytokine Production

The target of assay [3] is T2, BMPR-2 receptor extra cellular domain (Homo sapiens, UniProt Q13873).
T2 construct: immobilized BMPR-2 receptor extra cellular domain (ECD)
T2 sequence (Q13873 27-150 limits assumed): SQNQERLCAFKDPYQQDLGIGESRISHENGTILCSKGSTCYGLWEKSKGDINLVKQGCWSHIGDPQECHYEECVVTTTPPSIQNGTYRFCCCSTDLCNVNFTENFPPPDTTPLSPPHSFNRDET
Description: Radio-ligand receptor binding assay, competition with 125I-labeled TDF-1 for BMPR-2. The note with it: competitive binding, FIG. 4.
Description: as §2

In the case of CYFDDSSQVICKKYRS [SEQ ID NO:43], the “effect on level of IL-6 in HK2 cell medium” value in assay [1] was “brings the IL-6 level down below the basal level”. In the case of CYFDDSSNVICKK [SEQ ID NO:20], the anti-inflammatory activity result in the assay with HK-2 cells is listed as “no anti-inflammatory activity”. On to CLFDDSSNVICKKYRS [SEQ ID NO:15], for which the anti-inflammatory activity entry with HK-2 cells is “very weak anti-inflammatory activity”. As for CYFDDSSNVICK [SEQ ID NO:21], the “specific binding to ALK3 / inhibition of specific binding of labeled TDF-1 to ALK3 receptor” value in assay [2] is on record as “specifically binds”. Also, in the assay on HK-2 cells, the anti-inflammatory activity result is “no anti-inflammatory activity”.

Consider CYFDDNSNVICKKYRS [SEQ ID NO:42], for which the anti-inflammatory activity entry in the assay on HK-2 cells is “no anti-inflammatory activity”. In the case of “CIVNSSDDFLCKKYRS [SEQ ID NO:16, negative control peptide]”, the “specific binding to BMPR-2 / inhibition of specific binding of labeled TDF-1 to BMPR-2 receptor” value in assay [3] is listed as “does not inhibit”. In addition, in assay [2], the “specific binding to ALK3 / inhibition of specific binding of labeled TDF-1 to ALK3 receptor” value is “does not inhibit”. In the case of “TP2.006: peptide printed as SEQ ID NO:45 in FIG. 12 legend; conflicts with TP2.003 = SEQ ID NO:45 in b271 (CYFDDSSNVLCKKYRS)”, the anti-inflammatory activity entry in the assay with HK-2 cells is “no anti-inflammatory activity”.
